In one experiment the target is T1, 5-HT7 receptor (Homo sapiens, UniProt P34969).
T1 construct: Tissues were homogenized in ice cold sucrose; from tissue; host or cells: unspecified tissue, membrane homogenate
Put plainly: Receptor binding assay, [3]H-5-CT. As to conditions: for 5HT-7 receptor binding data using [3]H-5-CT: stepwise screen from 10 μM, active samples diluted and re-screened, radioligand 25 pM, dropout < 35; for pIC50: [3]H-5-CT binding. The procedure:
Receptor Binding Assay, ^[3]H-5-CT
The combinatorial library was screened using radiolabeled 5-carboxamidotryptamine, a selective 5-HT-7 agonist. Tissues were homogenized in ice cold sucrose (0.32 M, 25 ml) for 15 strokes at 500 rpm and centrifuged at 13000 rpm for 10 mins. The supernatant was re-centrifuged at 13000 rpm for 20 mins. The resulting pellet was re-dispersed to the required volume of buffer at 500 rpm and stored in aliquots at […].
Binding was achieved using radioligand 5-carboxamidotryptamine at 25 pM. The samples were incubated {with membranes (0.1 mg/ml)} in 20 mM Hepes, 1 mM EGTA, 5 mM MgCl2, 150 mM NaCl, at pH 6.5 for 2 hrs at RT and then centrifuged at 11000 rpm for 5 minutes. The membrane pellets were washed twice with water and the bound radioactivity was measured in a Packard Cobra Auto-gamma counter (B5005). All binding assays were carried out with SB-258719 as standard. Controls (no compound) were also added. All samples were made in duplicate and repeated twice. All compounds were initially screened for percentage inhibition at 10 μM. Samples showing an average inhibition of […] were diluted to 1 μM and re-screened and if active diluted again.

Experiment [1] concerns mice. Description: Despair swim test (immobility time test). It is filed as in vivo. The settings on record: immobility in 5 min test, drug one hour prior. The text has this: Despair Swim Test (Immobility Time Test)
This reflects a state of despair, which can be reduced by several agents, which are therapeutically effective in human depression. Antidepressant drugs have the effect of reducing the duration of immobility.
Mice were brought into the laboratory at least one day before the experiment and were housed in separate cages, with free access to food and water. The mice were individually forced to swim inside a vertical Plexiglas cylinder (height: 40 cm; diameter: 18 cm, containing 15 cm of water maintained at 30° C.). After 10 min in the water the mice were removed and allowed to dry in a heated enclosure (32° C.) before being returned to their home cages. They were again replaced in the cylinder 24 hrs later and the total duration of the immobility was measured during a 5 min test. Floating behaviour during this 5 min period was reproducible in different groups of mice. An animal was judged to be immobile whenever it remained floating passively in the water in a slightly hunched but upright position, its nose just above the surface. The test drug or the standard were administered one hour prior to testing.

For experiment [2], the system named is mice. Description: Tail suspension test. The experiment is classed as in vivo. As to conditions: interperitoneal 30 min prior, immobility over 5 minutes. The procedure: Male mice weighting 20-25 g were used preferentially. The were housed in plastic cages for at least 10 days prior to testing in a 12 hours light cycle with food and water freely available.
Animals were transported from the housing room to the testing area in their own cages and were allowed to adapt to the new environment for 1 hour before testing. Groups of 6 animals were treated with the test compounds or the vehicle by interperitoneal injection 30 min prior to testing. For the test the mice were suspended on the edge of a shelf 58 cm above a table top by adhesive tape, placed approximately 1 cm from the tip of the tail. The duration of immobility was recorded for a period of 5 minutes. Mice were considered immobile when they hang passively and the time was recorded.

pIC50: −log10 of the molar value. Marks after values point to notes of the source that are not given here.

T1 sequence (P34969 whole entry): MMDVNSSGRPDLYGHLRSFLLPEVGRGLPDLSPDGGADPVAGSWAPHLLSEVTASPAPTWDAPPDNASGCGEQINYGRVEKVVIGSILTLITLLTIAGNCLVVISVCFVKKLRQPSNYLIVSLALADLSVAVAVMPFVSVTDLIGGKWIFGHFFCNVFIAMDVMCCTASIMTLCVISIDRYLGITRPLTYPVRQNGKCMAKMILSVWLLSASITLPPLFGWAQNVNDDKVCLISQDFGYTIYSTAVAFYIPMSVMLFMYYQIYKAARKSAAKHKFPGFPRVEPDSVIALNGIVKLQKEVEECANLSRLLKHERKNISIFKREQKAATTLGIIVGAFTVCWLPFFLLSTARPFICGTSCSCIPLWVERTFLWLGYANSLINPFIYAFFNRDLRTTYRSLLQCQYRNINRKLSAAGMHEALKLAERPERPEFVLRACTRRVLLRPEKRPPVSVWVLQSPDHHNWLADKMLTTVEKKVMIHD

Take `Cc1cccc(S(=O)(=O)N(CCN(C)C)C(C)CCN2CCC(C)CC2)c1` (centres unmarked) [B9]: on 5-HT7 receptor, the “5HT-7 receptor binding data using [3]H-5-CT” value (“5HT-7 receptor binding data” for short) is “B9 * (1 micromolar)”.
As to `COc1ccccc1N(C(C)CCN1CCC(C)CC1)S(=O)(=O)c1cccc(C)c1` (centres unmarked) [B16], the “5HT-7 receptor binding data” value on 5-HT7 receptor is on record as “B16 ** (100 nM)”.
Take `COc1cccc(N(C(C)CCN2CCC(C)CC2)S(=O)(=O)c2cccc(C)c2)c1` (centres unmarked) [B23]: on 5-HT7 receptor, the “5HT-7 receptor binding data” value is given as “B23 *** (10 nM)”.
On the same count and under the same terms, next, `COc1ccc(S(=O)(=O)N(c2ccc(Cl)cc2)C(C)CCN2CCC(C)CC2)cc1` (centres unmarked) [C6]: “C6 ** (100 nM)”; `COc1ccc(S(=O)(=O)N(c2cccc3ccccc23)C(C)CCN2CCC(C)CC2)cc1` (centres unmarked) [C24]: “C24 * (1 micromolar)”; `CC1CCN(CCC(C)N(Cc2ccccc2)S(=O)(=O)c2cccc3ccccc23)CC1` (centres unmarked) [D1]: “D1 * (1 micromolar)”.
In the case of `CC1CCN(CCC(C)N(c2ccccn2)S(=O)(=O)c2cccc3ccccc23)CC1` (centres unmarked) [D13], the “5HT-7 receptor binding data” value at 5-HT7 receptor is listed as “D13 ** (100 nM)”.
Take `COc1cccc(N(C(C)CCN2CCC(C)CC2)S(=O)(=O)c2cccc3ccccc23)c1` (centres unmarked) [D23]: on 5-HT7 receptor, the pIC50 was 7.47 and the “5HT-7 receptor binding data” value was “D23 *** (10 nM)”.
Regarding `CC1CCN(CCC(C)N(Cc2ccccc2)S(=O)(=O)c2ccc3ccccc3c2)CC1` (centres unmarked) [E1], the “5HT-7 receptor binding data” value at 5-HT7 receptor was “E1 * (1 micromolar)”.
Regarding `COCCN(C(C)CCN1CCC(C)CC1)S(=O)(=O)c1ccc2ccccc2c1` (centres unmarked) [E3], the “5HT-7 receptor binding data” value on 5-HT7 receptor is recorded as “E3 * (1 micromolar)”.
For the molecule `CCCCCCCCCCCCN(C(C)CCN1CCC(C)CC1)S(=O)(=O)Cc1ccccc1` (centres unmarked) [G10], the “5HT-7 receptor binding data” value on 5-HT7 receptor is reported as “G10 * (1 micromolar)”.
On the same count and under the same terms, the same measure for `CC(=O)c1ccc(N(C(C)CCN2CCC(C)CC2)S(=O)(=O)Cc2ccccc2)cc1` (centres unmarked) [G22]: “G22 * (1 micromolar)”; for `COc1cccc(N(C(C)CCN2CCC(C)CC2)S(=O)(=O)Cc2ccccc2)c1` (centres unmarked) [G23]: “G23 *** (10 nM)”; for `CC1CCN(CCC(C)N(c2cccc3ccccc23)S(=O)(=O)Cc2ccccc2)CC1` (centres unmarked) [G24]: “G24 * (1 micromolar)”.
Turning to `CC1CCN(CCC(C)N(Cc2ccccc2)S(=O)(=O)c2cccc([N+](=O)[O-])c2)CC1` (centres unmarked) [I1], the “5HT-7 receptor binding data” value on 5-HT7 receptor is recorded as “I1 ** (100 nM)”.
Consider `CC1CCN(CCC(C)N(C)S(=O)(=O)c2cccc([N+](=O)[O-])c2)CC1` (centres unmarked) [I8], for which the “5HT-7 receptor binding data” value on 5-HT7 receptor is “I8 ** (100 nM)”.
Same read-out and setting: next, `CC1CCN(CCC(C)N(c2ccccc2)S(=O)(=O)c2cccc([N+](=O)[O-])c2)CC1` (centres unmarked) [I21]: “I21 ** (100 nM)”; `COc1cccc(N(C(C)CCN2CCC(C)CC2)S(=O)(=O)c2cccc([N+](=O)[O-])c2)c1` (centres unmarked) [I23]: “I23 ** (100 nM)”.
Regarding `CC1CCN(CCC(C)N(c2cccc3ccccc23)S(=O)(=O)c2cccc([N+](=O)[O-])c2)CC1` (centres unmarked) [I24], the “5HT-7 receptor binding data” value at 5-HT7 receptor is “I24 *** (10 nM)”.
As for `Cc1ccc(N(C(C)CCN2CCC(C)CC2)S(=O)(=O)c2ccc(-c3ccccc3)cc2)cc1` (centres unmarked) [J20], the “Forced swim test” value is recorded as 42 ± 6 s in the experiment on mice [1] (1 mg/kg) and 28 ± 4 s with mice [1] (5 mg/kg). At 5-HT7 receptor, this molecule showed a negative logarithm of the IC50 (pIC50) of 7.21. For the same molecule, at 5-HT7 receptor, the “5HT-7 receptor binding data” value is on record as “J20 *** (10 nM)”. The “Tail suspension” value in the experiment with mice [2] (1 mg/kg) was determined as 130 ± 11 s; in the experiment on mice [2] (5 mg/kg), 92 ± 9 s.
As for `COc1cccc(N(C(C)CCN2CCC(C)CC2)S(=O)(=O)c2ccc(-c3ccccc3)cc2)c1` (centres unmarked) [J23], at 5-HT7 receptor, the negative logarithm of the IC50 (pIC50) was 7.41 and the “5HT-7 receptor binding data” value was “J23 *** (10 nM)”.
Take `CC1CCN(CCC(C)N(CCN(C)C)S(=O)(=O)c2ccc(Br)cc2)CC1` (centres unmarked) [M9]: on 5-HT7 receptor, the “5HT-7 receptor binding data” value is recorded as “M9 * (1 micromolar)”.
`COCCN(C(C)CCN1CCC(C)CC1)S(=O)(=O)c1cccc(C(F)(F)F)c1` (centres unmarked) [N3]: the “5HT-7 receptor binding data” value at 5-HT7 receptor is given as “N3 ** (100 nM)”.
As to `COc1ccccc1N(C(C)CCN1CCC(C)CC1)S(=O)(=O)c1cccc(C(F)(F)F)c1` (centres unmarked) [N16], the “5HT-7 receptor binding data” value on 5-HT7 receptor was “N16 ** (100 nM)”.
Turning to `Cc1ccc(N(C(C)CCN2CCC(C)CC2)S(=O)(=O)c2cccc(C(F)(F)F)c2)cc1` (centres unmarked) [N20], on 5-HT7 receptor, the “5HT-7 receptor binding data” value is reported as “N20 ** (100 nM)”.
In the case of `COc1ccc(S(=O)(=O)N(c2cccc3ccccc23)C(C)CCN2CCC(C)CC2)cc1OC` (centres unmarked) [O24], the entries for the “Forced swim test” value in the experiment with mice [1] (1 mg/kg) and with mice [1] (5 mg/kg) were 69 ± 7 s and 51 ± 11 s, respectively. At 5-HT7 receptor, this molecule had a pIC50 of 7.08. For the same molecule, the “5HT-7 receptor binding data” value at 5-HT7 receptor is listed as “O24 *** (10 nM)”. For the same molecule, the “Tail suspension” value is 81 ± 8 s with mice [2] (1 mg/kg) and 74 ± 9 s with mice [2] (5 mg/kg).
